Data as given in patent US20090298707A1, “SPARSE MATRIX SYSTEM AND METHOD FOR IDENTIFICATION OF SPECIFIC LIGANDS OR TARGETS” (priority 2008, published 2009).
Entries after “also recorded” stand apart in the source; their conditions may differ.

What was measured:
[1] = tested on: diverse panel of various strains of bacteria; assay: Specificity screen by fluorescence microscopy against a bacterial panel; format: binding; conditions: bacteria other than S. aureus and M. luteus
Experimental: (§1) Peptide samples were prepared at a concentration of 25 μM for screening against a variety of organisms by exposing immobilized bacteria to labeled peptides. For bacterial cell binding assays, cells were grown overnight, washed, and immobilized in a polylysine-coated 96-well plate. Fluorescein-labeled peptide samples were applied to immobilized bacteria, incubated for 10 minutes and washed extensively to remove unbound peptide. Samples were visualized by fluorescence microscopy. For each peptide, both brightfield and fluorescence images were collected, and camera and microscope settings were not altered between images. The locations of cells and background regions were determined using the brightfield images; those regions were then selected in the fluorescence images for quantitation of pixel values for determination of relative fluorescence intensities (represented as bacterial fluorescence/background fluorescence) using the GNU Image Manipulation Program (The GIMP, see, e.g., www.gimp.org). […]
(§2) To examine the specificities of the peptides identified in this experiment, a diverse panel of various strains of bacteria was assembled, consisting of Lactobacillus casei, Escherichia coli, Enterococcus faecalis, Streptococcus mutans, Streptococcus mitis, Streptococcus gordonii, Pseudomonas aeruginosa, Klebsiella pneumoniae, Micrococcus luteus (strain MS2), Staphylococcus epidermidis, and two strains of Staphylococcus aureus: a methicillin/oxacillin-sensitive community isolate and our methicillin/oxacillin-resistant community isolate of (strain AM1). Peptides 3C and 4D from the original pilot library were screened for binding against these bacteria by fluorescence microscopy, and images were analyzed as before.

M. luteus MS2 = assay: Pulldown binding assay, Langmuir isotherm fit, M. luteus; parameters: species or system Micrococcus luteus; conditions: for Langmuir Affinity (Ka): association constant from Langmuir isotherm fit; for Monolayer Concentration (N): maximum surface concentration from Langmuir fit
Excerpt: (§3) To investigate whether the changes in the observed level of binding were due to changes in the affinities or avidities of the refined peptides for cell surfaces, binding curves were generated for selected peptides and fit to the Langmuir isotherm (where possible), the simplest model describing binding to surfaces (peptides showing either complex or nonspecific binding isotherms were excluded from this analysis).
(§4) Measurements were taken of the absorbance of the labeled peptide at 488 nm (the peak absorbance of the fluorescein label) before and after exposure to the cells. The amount of peptide bound was calculated by comparing the ratio of the final (Af) and initial (Ai) absorbances to the initial concentration (C0)[Cbound=C0(1−(Af/Ai))]. Bacterial surface area per sample was calculated using a stage micrometer to determine the average cell diameter for each species (1.0+/−0.1 μm for S. aureus AM1, 2.7+/−0.1 μm for M. luteus MS2), treating individual cells as discrete spheres. Average cell concentration per unit OD600 was calculated using a hemocytometer.
(§5) Plots were then generated of the amount of peptide bound per m^2 of bacterial surface area vs. the concentration of unbound peptide at equilibrium. Where possible, the resulting isotherms were fit to the Langmuir isotherm (P/A=(KaNCeq)/(1+KaCeq), where P/A represents the molar amount of peptide bound per unit of bacterial surface area, Ka is the association constant of the peptide with the bacterial surface (L/Mol), N is the maximum surface concentration (mol/m^2), and Ceq is the molar concentration of unbound peptide at equilibrium) (Calis et al. (1995) Pharm Res 12(7): 1072-1076). Data plots and curvefits were obtained using Kaleidagraph (Synergy Software).

M. luteus = assay: Fluorescence microscopy binding of labeled peptides to immobilized bacteria, M. luteus; parameters: species or system Micrococcus luteus; conditions: 25 μM fluorescein-labeled peptide, immobilized cells
Experimental: as §1, §2

[2] = tested on: immobilized S. aureus cells; assay: Fluorescence microscopy binding of labeled peptides to immobilized bacteria, S. aureus; parameters: species or system Staphylococcus aureus; conditions: for Binding to S. aureus (fluorescent staining): 25 μM fluorescein-labeled peptide, 10 minutes, immobilized cells; for Binding to immobilized S. aureus relative to peptides of the original pilot library: refined libraries, fluorescence images
Experimental: Peptide samples were prepared at a concentration of 25 μM for screening against a variety of organisms by exposing immobilized bacteria to labeled peptides. For bacterial cell binding assays, cells were grown overnight, washed, and immobilized in a polylysine-coated 96-well plate. Fluorescein-labeled peptide samples were applied to immobilized bacteria, incubated for 10 minutes and washed extensively to remove unbound peptide. Samples were visualized by fluorescence microscopy. For each peptide, both brightfield and fluorescence images were collected, and camera and microscope settings were not altered between images. The locations of cells and background regions were determined using the brightfield images; those regions were then selected in the fluorescence images for quantitation of pixel values for determination of relative fluorescence intensities (represented as bacterial fluorescence/background fluorescence) using the GNU Image Manipulation Program (The GIMP, see, e.g., www.gimp.org).
The following bacterial species and strains were used: Lactobacillus casei (strain), Escherichia coli (W3110), Enterococcus faecium (strain), Streptococcus mutans (UA140), Streptococcus mitis (ATCC 903), Streptococcus gordonii (NY101), Pseudomonas aeruginosa(strain K), Klebsiella pneumoniae (KAY2026), Myxococcus xanthus (Strains DK1622, wildtype, and difA, exopolysaccharide deficient^21), Micrococcus luteus (strain MS2, a community isolate), Staphylococcus epidermidis (strain), and Staphylococcus aureus(strains, and AM1, a methicillin/oxacillin-resistant community isolate).
For isolation of community-acquired S. aureus and M. luteus strains (strains MS2 and AM1), swabs were collected from the nostrils of several volunteers and streaked on Brain-Heart Infusion (BHI) agar and incubated at 37° C. overnight. Yellow colonies were isolated and typed (Microbial ID, Inc., Newark, Del.). Antibiotic resistance was assayed by plating on BHI in the presence of various antibiotics. Commercially available antibiotic susceptibility test disks were used to assay for oxacillin resistance (BD Biosciences), according to the manufacturer's instructions. Due to the difficulty of obtaining methicillin, oxacillin resistance was used as a proxy for methicillin resistance in isolated strains.^22
The peptides comprising these two refined libraries were synthesized, labeled, and screened against immobilized S. aureus cells exactly as for the original pilot library.
as §2

[3] = Confocal laser scanning microscopy of labeled peptides on tooth sections; format: binding; conditions: sectioned human tooth, CLSM
Excerpt: The fluorescein-labeled peptides in the initial pilot library were pooled and screened by Confocal Laser Scanning Microscopy as follows. The quadrants of the library were collected into four pools of 9 peptides each. Peptides were screened by exposing the pooled, 5(6)-carboxyfluorescein-labeled peptides to sections taken from human teeth (extracted during normal clinical practice), followed by visualization of the samples by Confocal Laser Scanning Microscopy (CLSM).

S. aureus AM1 = assay: Pulldown binding assay, Langmuir isotherm fit, S. aureus; parameters: species or system Staphylococcus aureus; conditions: for Langmuir Affinity (Ka): association constant from Langmuir isotherm fit, fluorescein-labeled peptide 0-100 μM; for Monolayer Concentration (N): maximum surface concentration from Langmuir fit
Excerpt: as §3, §4, §5

Substance | Langmuir Affinity (Ka) (M. luteus MS2) | Monolayer Concentration (N) (M. luteus MS2) | Binding to S. aureus (fluorescent staining) [2] | Binding to immobilized S. aureus relative to peptides of the original pilot library [2] | Langmuir Affinity (Ka) (S. aureus AM1) | Monolayer Concentration (N) (S. aureus AM1) | further results
In-plane refinement 1B: in-plane refined library peptide, SEQ ID NO:50 (IVSYVITQL; synthetic in-plane refinement library peptide B1) | 2.4 ± 0.8 M^−1 × 10000 | 0.11 ± 0.02 Mol/m^2 × 0.0001 | strongest binding | enhanced binding |  |  | Binding to the other bacteria of the panel [1]: no significant binding; Binding to M. luteus (fluorescent staining) (M. luteus): strongest binding
In-plane refinement C1: in-plane refined library peptide, SEQ ID NO:54 (LVSYVLTQV; synthetic in-plane refinement library peptide C1) |  |  |  | enhanced binding |  |  | 
In-plane refinement B2: in-plane refined library peptide, SEQ ID NO:51 (IVSQVIQNL; synthetic in-plane refinement library peptide B2) |  |  |  | enhanced binding |  |  | 
AMKDAMERM (synthetic peptide with tissue-specific binding to tooth enamel and enamel-proximal region of dentino-enamel junction) [Pilot Library 4F] |  |  |  |  |  |  | Binding to dentin [3]: no obvious binding; Binding to tooth enamel and enamel side of the dentin-enamel junction [3]: clear binding
Orthogonal refinement 2A: orthogonal refined library peptide, SEQ ID NO:63 (IVVILSQQN; synthetic orthogonal refinement library peptide A2) | 1.6 ± 0.7 M^−1 × 10000 | 0.5 ± 0.2 Mol/m^2 × 0.0001 |  |  | 13 ± 4 M^−1 × 10000 | 0.14 ± 0.01 Mol/m^2 × 0.0001 | Affinity relative to initial hits / parent peptide of the pilot library (S. aureus AM1; in words): comparable affinity; Nmax relative to pilot library hits (S. aureus AM1; in words): significant increase; KA relative to peptides from the parent library (M. luteus MS2; in words): no significant changes; Nmax relative to peptides from the parent library (M. luteus MS2; in words): no significant changes
Pilot Library 3D: pilot library 9-mer, SEQ ID NO:29; became D1 of the in-plane matrix (SEQ ID NO:58) (VASYVATQV; synthetic pilot library peptide D3) | 10 ± 7 M^−1 × 10000 | 0.021 ± 0.004 Mol/m^2 × 0.0001 | some of the brightest unique staining |  | 6 ± 1 M^−1 × 10000 | 0.18 ± 0.2 Mol/m^2 × 0.0001 | 
In-plane refinement C4: in-plane refined library peptide, SEQ ID NO:57 (LVKDVLERV; synthetic in-plane refinement library peptide C4) |  |  |  | enhanced binding |  |  | 
In-plane refinement 3A: in-plane refined library peptide, SEQ ID NO:48 (LIERILQNL; synthetic in-plane refinement library peptide A3) | 8 ± 3 M^−1 × 10000 | 0.0047 ± 0.006 Mol/m^2 × 0.0001 | binding was seen only to the methicillin/oxacilin-resistant strain of S. aureus | enhanced binding |  |  | Affinity relative to initial hits / parent peptide of the pilot library (S. aureus AM1; in words): increased affinity; Nmax relative to peptides from the parent library (M. luteus MS2; in words): sharp reduction
Orthogonal refinement 2C: orthogonal refined library peptide, SEQ ID NO:71 (IVSQVIQNL; synthetic orthogonal refinement library peptide C2) | 1.4 ± 0.4 M^−1 × 10000 | 0.12 ± 0.03 Mol/m^2 × 0.0001 |  |  | 1.1 ± 0.3 M^−1 × 10000 | 7 ± 1 Mol/m^2 × 0.0001 | 
In-plane refinement C2: in-plane refined library peptide, SEQ ID NO:55 (LVSQVLQNV; synthetic in-plane refinement library peptide C2) |  |  |  | enhanced binding |  |  | 
Pilot Library 3C: pilot library 9-mer, SEQ ID NO:23; became A1 of the in-plane matrix (SEQ ID NO:46) (LISYILTQL; synthetic pilot library peptide C3) | 4 ± 1 M^−1 × 10000 | 0.12 ± 0.02 Mol/m^2 × 0.0001 | Binding was clearly seen; also recorded: binds well |  | 5.6 ± 0.9 M^−1 × 10000 | 0.31 ± 0.2 Mol/m^2 × 0.0001 | Binding to the other bacteria of the panel [1]: significant levels of binding to several of the other bacteria tested; also recorded: significant binding to several strains; Binding to M. luteus (fluorescent staining) (M. luteus): Binding was clearly seen; also recorded: binds well; Binding to S. aureus (fluorescent staining) ([2]; listed as Pilot Library C3): some of the brightest unique staining
Pilot Library E4: pilot library 9-mer, SEQ ID NO:36 (AMKDAMERM; synthetic pilot library peptide E4) |  |  |  |  |  |  | Binding to dentin [3]: No significant staining; Binding to tooth enamel and enamel side of the dentin-enamel junction [3]: clear fluorescent staining
Pilot Library 4C: pilot library 9-mer, SEQ ID NO:24; became A4 of the in-plane matrix (SEQ ID NO:49) (LIKDILERL; synthetic pilot library peptide C4) | 1 ± 0.6 M^−1 × 10000 | 0.10 ± 0.04 Mol/m^2 × 0.0001 | some of the brightest unique staining |  | 5 ± 1 M^−1 × 10000 | 0.23 ± 0.2 Mol/m^2 × 0.0001 | 
In-plane refinement B4: in-plane refined library peptide, SEQ ID NO:53 (IVKDVIERL; synthetic in-plane refinement library peptide B4) |  |  |  | enhanced binding |  |  | 
